Results taken from patent publication US9873680B2 (Gilead Sciences, Inc., priority 2014, dated 2018).
Like-named read-outs stand apart in the source and are kept apart here.

Columns and labels:
[1] = Test B: Cytotoxicity Assay; type: cell-based; conditions: human, uninfected MT-4 cells, CellTiter-Glo
Method: Test B: Cytotoxicity Assay Compound cytotoxicity and the corresponding CC50 values was determined using the same protocol as described in the antiviral assay (Test A) except that uninfected cells were used.

HIV-IIIb = assay: Test A: Antiviral Assay in MT4 Cells; type: cell-based, HIV-1; conditions: for inhibition at 0.2 µM: 0.2 μM drug concentration
Procedure, shortened: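 MT-4 cells were preinfected with HIV-IIIb […]. Cell viability, as protection from viral cytopathic effect, was read by CellTiter-Glo chemiluminescence.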

[2] = Human immunodeficiency virus 1, MT4, 120 h, MT-4 cells infected with HIV-IIIb, 5 days, values normalized to 100%, average over time, read-out: % inhibition at 0.2 μM (percent inhibition of virus-induced cell killing)

SMILES	CC50 at 5 days [1] [µM]	inhibition at 0.2 µM (HIV-IIIb; [2]) [%]	inhibition at 0.2 µM (HIV-IIIb; Human immunodeficiency virus 1, IIIB, MT4, comparison with previously published compounds, read-out: Response at 0.2 μM (percent inhibition of virus-induced cell killing)) [%]	inhibition at 2 µM (HIV-IIIb; Human immunodeficiency virus 1, IIIB, MT4, 2 μM drug concentration, comparison with previously published compounds, read-out: Response at 2 μM (percent inhibition of virus-induced cell killing)) [%]
Cn1nc(NS(C)(=O)=O)c2c(Cl)ccc(-c3ccc(C#CC4(O)CC(F)(F)C4)nc3[C@H](Cc3cccc(F)c3)NC(=O)Cn3nc(C(F)(F)F)c4c3C(F)(F)[C@@H]3C[C@H]43)c21 [Compound 102, N—((S)-1-(3-(4-chloro-1-methyl-3-(methylsulfonamido)-1H-indazol-7-yl)-6-((3,3-difluoro-1-hydroxycyclobutyl)ethynyl)pyridin-2-yl)-2-(3-fluorophenyl)ethyl)-2-((3bS,4aR)-5,5-difluoro-3-(trifluoromethyl)-3b,4,4a,5-tetrahydro-1H-cyclopropa[3,4]cyclopenta[1,2-c]pyrazol-1-yl)acetamide]	7.17	88	–	–
Cn1nc(NS(C)(=O)=O)c2c(Cl)ccc(-c3ccc(C#CC4(O)CC(F)(F)C4)nc3[C@H](Cc3cc(F)cc(F)c3)NC(=O)Cn3nc(C(F)(F)F)c4c3C(F)(F)[C@@H]3C[C@H]43)c21 [Compound 103, N—((S)-1-(3-(4-chloro-1-methyl-3-(methylsulfonamido)-1H-indazol-7-yl)-6-((3,3-difluoro-1-hydroxycyclobutyl)ethynyl)pyridin-2-yl)-2-(3,5-difluorophenyl)ethyl)-2-((3bS,4aR)-5,5-difluoro-3-(trifluoromethyl)-3b,4,4a,5-tetrahydro-1H-cyclopropa[3,4]cyclopenta[1,2-c]pyrazol-1-yl)acetamide]	9.21	100	–	–
Cn1nc(NS(C)(=O)=O)c2c(Cl)ccc(-c3ccc(C#CC4(O)CC(F)(F)C4)nc3[C@H](Cc3cc(F)cc(F)c3)NC(=O)Cn3nc(C(F)F)c4c3C(F)(F)CCC4(F)F)c21 [Compound 104, (S)—N-(1-(3-(4-chloro-1-methyl-3-(methylsulfonamido)-1H-indazol-7-yl)-6-((3,3-difluoro-1-hydroxycyclobutyl)ethynyl)pyridin-2-yl)-2-(3,5-difluorophenyl)ethyl)-2-(3-(difluoromethyl)-4,4,7,7-tetrafluoro-4,5,6,7-tetrahydro-1H-indazol-1-yl)acetamide]	8.42	100	–	–
Cn1nc(NS(C)(=O)=O)c2cccc(-c3ccc(C#CC4(O)CC(F)(F)C4)nc3[C@H](Cc3cc(F)cc(F)c3)NC(=O)Cn3nc(C(F)(F)F)c4c3C(F)(F)[C@@H]3C[C@H]43)c21 [Compound 105D]	6.46	88	–	–
NC(=O)c1cc(-c2ccc(C#CC3(O)CC(F)(F)C3)nc2[C@H](Cc2cc(F)cc(F)c2)NC(=O)Cn2nc(C(F)F)c3c2C(F)(F)[C@@H]2C[C@H]32)ccc1F [Compound 106C, 5-(6-((3,3-difluoro-1-hydroxycyclobutyl)ethynyl)-2-((S)-1-(2-((3bS,4aR)-3-(difluoromethyl)-5,5-difluoro-3b,4,4a,5-tetrahydro-1H-cyclopropa[3,4]cyclopenta[1,2-c]pyrazol-1-yl)acetamido)-2-(3,5-difluorophenyl)ethyl)pyridin-3-yl)-2-fluorobenzamide]	2.85	100	–	–
NC(=O)c1cc(-c2ccc(C#CC3(O)CC(F)(F)C3)nc2[C@H](Cc2cc(F)cc(F)c2)NC(=O)Cn2nc(C(F)(F)F)c3c2C(F)(F)[C@@H]2C[C@H]32)ccc1F [Compound 107, 5-(6-((3,3-difluoro-1-hydroxycyclobutyl)ethynyl)-2-((S)-1-(2-((3bS,4aR)-5,5-difluoro-3-(trifluoromethyl)-3b,4,4a,5-tetrahydro-1H-cyclopropa[3,4]cyclopenta[1,2-c]pyrazol-1-yl)acetamido)-2-(3,5-difluorophenyl)ethyl)pyridin-3-yl)-2-fluorobenzamide]	3.64	99	99	99
Cn1nc(O)c2c(Cl)ccc(-c3ccc(C#CC4(O)CCOCC4)nc3[C@H](Cc3cc(F)cc(F)c3)NC(=O)Cn3nc(C(F)F)c4c3C(F)(F)[C@@H]3C[C@H]43)c21 [Compound 109E, N—((S)-1-(3-(4-chloro-3-hydroxy-1-methyl-1H-indazol-7-yl)-6-((4-hydroxytetrahydro-2H-pyran-4-yl)ethynyl)pyridin-2-yl)-2-(3,5-difluorophenyl)ethyl)-2-((3bS,4aR)-3-(difluoromethyl)-5,5-difluoro-3b,4,4a,5-tetrahydro-1H-cyclopropa[3,4]cyclopenta[1,2-c]pyrazol-1-yl)acetamide]	22.3	100	–	–
